Laboratory results: patent US20140371165A1, “Identification of NSC23925 Isomers to Reverse Multidrug Resistance in Human Cancers” (priority 2012, published 2014)

Legend:
MCF-7adr = experiment: MTT cytotoxicity assay and reversal of MDR in MCF-7adr; type: cell-based, human; settings: Homo sapiens, NCI/ADR-RES, 144 h, without NSC23925b, MTT, 6 days, read-out: IC50 of chemotherapy drug alone
Text: (§1) A panel of parental cancer cell line and their daughter resistant cell lines, displaying MDR phenotype were used in this study. Human ovarian cancer cell line SKOV-3, breast cancer cell line MCF-7 and colon cancer cell line SW480, the osteosarcoma cell line U-2OS, KHOS, uterine sarcoma cell line MESSA and its doxorubicin selected drug resistant cell line MESSA/Dx5, non-small cell lung cancer cell line H-69 and its doxorubicin selected drug resistant cell line H-69AR (overexpress MRP1) were obtained from the ATCC (Rockville, Md.). Dr. Efstathios Gonos (Institute of Biological Research & Biotechnology, Athens, Greece) provided the doxorubicin resistant U-2OS R2 (referred in the text below as U-2OSDR), KHOS R2 cell lines. Dr. Erasmus Schneider (Wadsworth Center, Albany) provided the mitoxantrane resistant breast cancer MCF-7/MX (overexpress BCRP) cell line. All the cell lines were cultured in RPMI 1640 (Invitrogen, Carlsbad, Calif.) supplemented with 10% fetal bovine serum, 100-units/ml penicillin and 100 μg/ml streptomycin (Invitrogen). Cells were incubated at 37° C. in 5% CO2-95% air atmosphere and passaged when near confluent monolayers were achieved using 2% trypsin-EDTA solution. […] The fresh chemotherapy drugs were obtained from the pharmacy at the Massachusetts General Hospital and stored at −20° C.
(§2) To evaluate for reversal of Pgp-mediated MDR, SKOV-3TR, MCF-7adr and SW480TR cell lines were seeded into 96-well tissue culture plate at 2,000 cells per well with varying concentrations of chemotherapy drugs and NSC23925b for 6 days. Cell proliferation IC50 (concentration required for 50% inhibition) and MDR reversal IC50 were determined from dose-response curves carried out in triplicate in 96-well plate. Fold of reverse resistance for individual drugs were defined as the IC50 of MDR cells without NSC23925b treatment divided by the IC50 of MDR cells treated with NSC23925b. […] Drug cytotoxicity was assessed in vitro using the MTT assay as previously described. […] Response curves were fitted with use of GraphPad PRISM 4 software (GraphPad Software).
(§3) MCF-7adr and SW480TR cells were treated with paclitaxel (FIGS. 2A-B), doxorubicin (FIGS. 2C-D) or mitoxantrane (FIGS. 2E-F) and NSC23925b in RPMI1640 complete media at the indicated concentrations. The relative sensitivity of each line to the indicated drugs was determined by MTT analysis 6 days post-treatment.

SKOV-3TR = experiment: MTT cytotoxicity assay and reversal of MDR in SKOV-3TR; type: cell-based, human; settings: for IC50: Homo sapiens, SKOV3TR, 144 h, without NSC23925b, MTT, 6 days, read-out: IC50 of chemotherapy drug alone; for potency of isomer on reversing drug resistance: with paclitaxel, MTT 6 days post-treatment
Text: as §1, §2
Structure and activity relationship (SAR) of the four NSC23925 isomers for reversing MDR were evaluated in human ovarian cancer MDR cell line SKOV-3TR by MTT assay (FIGS. 1A-D). Cells were treated with the paclitaxel and NSC23925 diastereomers NSC23925a (FIG. 1A), NSC23925b (FIG. 1B), NSC23925c (FIG. 1C) and NSC23925d (FIG. 1D) in RPMI1640 complete media at the indicated concentrations. The relative sensitivity of each line to paclitaxel was determined by MTT analysis 6 days post-treatment.

[1] = tested on: SKOV-3TR xenograft tumors; experiment: SKOV-3TR xenograft tumor growth in nude mice; settings: alone; i.p. twice a week for two weeks; paclitaxel 20 mg/kg or NSC23925b 40 mg/kg
Experimental: The Crl:SHO-Prkdc^SCIDHr^hr nude female mice at approximately 3-4 weeks of age were purchased from The Charles River Laboratories (Ann Arbor, Mich.). Animal studies were carried out with protocols approved by the Massachusetts General Hospital Subcommittee on Research Animal Care (SRAC). To determine the effect of NSC23925b on paclitaxel sensitivity in xenograft model, 5×10^6 SKOV-3TR cells were injected subcutaneously with matrigel (BD Biosciences, San Jose, Calif.) on day one. Two weeks after injection, the mice were divided into four groups to start the treatments. Group one was received intraperitoneal (i.p) injection with normal saline, group two with paclitaxel (20 mg/kg), group three with NSC23925b (40 mg/kg). […] All four groups were treated twice a week for two weeks. The health of the mice and evidence of tumor growth were examined daily. Tumors were measured twice a week with a digital caliper. Tumor volume (mm^3) was calculated as (W^2×L)/2, where W is width and L is length. The curve of tumor growth was drawn according to tumor volume by using of GraphPad PRISM 4 software.
To further evaluate the effects of NSC23925b and paclitaxel combination therapy on the tumor growth of resistant cells, the growth of xenograft tumors were examined. A well-characterized ovarian cancer MDR cell line SKOV-3TR was chosen for in vivo studies. […] Tumors were measured twice a week with a digital caliper. Tumor volume (mm^3) was calculated as (W^2×L)/2, where W is width and L is length (FIG. 5A). Representative images of dissected tumor tissues from treated nude mice.

SW480TR = experiment: MTT cytotoxicity assay and reversal of MDR in SW480TR; type: cell-based, human; settings: Homo sapiens, 144 h, without NSC23925b, MTT, 6 days, read-out: IC50 of chemotherapy drug alone
Text: as §1, §2, §3

[2] = Solubility in organic solvents; type: physicochemical; settings: volume of methanol for 5 milligram

CC(=O)O[C@H]1C(=O)[C@@]2(C)[C@H]([C@H](OC(=O)c3ccccc3)[C@]3(O)C[C@H](OC(=O)[C@H](O)[C@@H](NC(=O)c4ccccc4)c4ccccc4)C(C)=C1C3(C)C)[C@]1(OC(C)=O)CO[C@@H]1C[C@@H]2O [Paclitaxel, reference compound]
IC50 (MCF-7adr): 0.62 ± 0.12 µM
IC50 (SKOV-3TR): 0.57 ± 0.03 µM
effect on paclitaxel resistant tumor cell growth, single agent [1]: no significant effects
IC50 (SW480TR): 0.12 ± 0.08 µM

O=C1c2c(O)ccc(O)c2C(=O)c2c(NCCNCCO)ccc(NCCNCCO)c21 [Mitoxantrane, reference compound]
IC50 (MCF-7adr): 0.32 ± 0.06 µM
IC50 (SKOV-3TR): 0.46 ± 0.06 µM
IC50 (SW480TR): 0.27 ± 0.03 µM

COc1ccc(-c2cc([C@H](O)[C@@H]3CCCCN3)c3ccccc3n2)cc1.Cl (single isomer, unassigned) [NSC23925d, (2-(4-methoxyphenyl)quinolin-4-yl)(piperidin-2-yl)methanol hydrochloride]
potency of isomer on reversing drug resistance (SKOV-3TR): modest but lesser activity
5 milligram solubility in methanol [2]: 150 µL

COc1ccc(-c2cc([C@@H](O)[C@@H]3CCCCN3)c3ccccc3n2)cc1.Cl [NSC23925a, (2-(4-methoxyphenyl)quinolin-4-yl)(piperidin-2-yl)methanol hydrochloride]
potency of isomer on reversing drug resistance (SKOV-3TR): least potency
5 milligram solubility in methanol [2]: 650 µL

COc1ccc(-c2cc([C@@H](O)[C@H]3CCCCN3)c3ccccc3n2)cc1.Cl (single isomer, unassigned) [NSC23925c, (2-(4-methoxyphenyl)quinolin-4-yl)(piperidin-2-yl)methanol hydrochloride]
potency of isomer on reversing drug resistance (SKOV-3TR): modest but lesser activity
5 milligram solubility in methanol [2]: 150 µL

COc1cccc2c1C(=O)c1c(O)c3c(c(O)c1C2=O)C[C@@](O)(C(=O)CO)C[C@@H]3O[C@H]1C[C@H](N)[C@H](O)[C@H](C)O1 [Doxorubicin, reference compound]
IC50 (MCF-7adr): 3.8 ± 0.12 µM
IC50 (SKOV-3TR): 38.5 ± 2.6 µM
IC50 (SW480TR): 0.84 ± 0.16 µM
